Assay results published in US10508085B2, “Compounds and methods for IDO and TDO modulation, and indications therefor” (Plexxikon Inc., priority 2016, dated 2019).

Key:
[1] = biological target: T1, Human Tryptophan 2,3-dioxygenase (TDO) (Homo sapiens, UniProt P48775); assay: Human TDO enzymatic assay (kynurenine level); format: biochemical; conditions: 1 nM TDO, 350 μM L-Trp; geometric mean; read-out: TDO GMean: IC50 (μM) (Biochemical Assay)
T1 construct: His tag (N); made in house; host or cells: E. coli
Outline: (§1)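 Reactions were stopped with TCA, converting N-formylkynurenine to kynurenine for quantitation, with IC50 by nonlinear regression. IDO: 6 nM enzyme, 10 μM L-Trp, 20 min RT. TDO: 1 nM enzyme, 350 μM L-Trp, 70 min RT, both in pH 6.5 buffer.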

[2] = biological target: T2, Human Indoleamine 2,3-dioxygenase (IDO) (Homo sapiens, UniProt P14902); assay: Human IDO enzymatic assay (kynurenine level); format: biochemical; conditions: 6 nM IDO, 10 μM L-Trp; geometric mean; read-out: IDO1 GMean: IC50 (μM) (Biochemical Assay)
T2 construct: His tag (N); made in house; host or cells: E. coli
Outline: as §1

[3] = biological target: T3, human IDO (IDO1-expressing HEK293 cells) (Homo sapiens, UniProt P14902); assay: Cell based kynurenine assay, IDO1-expressing HEK293 cell clones; conditions: IDO1-expressing HEK293 cells, 24 hours incubation; geometric mean; read-out: HEK293 IDO1 Kynurenine GMean IC50 (μM) (Cellular Assay)
T3 construct: expressed in transfected cells
Method: (§2) Determine Inhibitor Activity Against IDO or TDO in Cell Based Kynurenine Assay
(§3) IDO1-expressing or TDO-expressing HEK293 cell clones are generated upon stable transfection of plasmids expressing human IDO or human TDO under the control of CMV promoter. Cells are selected in DMEM media supplemented with 10% fetal bovine serum and 1 mg/ml G418 at 37° C. in a humidified incubator supplied with 5% CO2. The assays are performed as follows.
(§4) Cells were seeded in a 96 well plate in 50 μL of culture media at a density of 2.5×10^4 per well. Serial dilutions of compounds (in total volume of 50 μL culture media) are added into cells. 4 wells containing 0.2% DMSO treated cells serve as high controls and 4 wells containing media only with 0.2% DMSO serve as low controls. After 24 hours of incubation, the supernatant was transferred to a 384 well reaction plate and the kynurenine level determined. The percentage inhibition at individual concentrations relative to high and low controls is calculated. The data is analyzed by using nonlinear regression to generate IC50 values.

[4] = biological target: T4, human TDO (TDO-expressing HEK293 cells) (Homo sapiens, UniProt P48775); assay: Cell based kynurenine assay, TDO-expressing HEK293 cell clones; conditions: TDO-expressing HEK293 cells, 24 hours incubation; geometric mean; read-out: HEK293 TDO Kynurenine GMean IC50 (μM) (Cellular Assay)
T4 construct: expressed in transfected cells
Method: as §2, §3, §4

T3 sequence (P14902 whole entry): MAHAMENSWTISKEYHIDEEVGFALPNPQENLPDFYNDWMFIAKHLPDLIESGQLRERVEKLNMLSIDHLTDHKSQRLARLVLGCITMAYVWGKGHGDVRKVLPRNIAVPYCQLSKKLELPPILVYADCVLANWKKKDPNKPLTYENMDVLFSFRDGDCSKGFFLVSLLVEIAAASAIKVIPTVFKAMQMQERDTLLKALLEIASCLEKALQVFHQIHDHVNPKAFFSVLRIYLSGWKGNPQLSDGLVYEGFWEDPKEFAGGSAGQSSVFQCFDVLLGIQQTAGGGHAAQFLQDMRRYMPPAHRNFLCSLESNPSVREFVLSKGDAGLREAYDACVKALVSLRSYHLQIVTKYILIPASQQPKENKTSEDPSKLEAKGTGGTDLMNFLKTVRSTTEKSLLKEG
T2 sequence (P14902 whole entry): as above
T1 sequence (P48775 whole entry): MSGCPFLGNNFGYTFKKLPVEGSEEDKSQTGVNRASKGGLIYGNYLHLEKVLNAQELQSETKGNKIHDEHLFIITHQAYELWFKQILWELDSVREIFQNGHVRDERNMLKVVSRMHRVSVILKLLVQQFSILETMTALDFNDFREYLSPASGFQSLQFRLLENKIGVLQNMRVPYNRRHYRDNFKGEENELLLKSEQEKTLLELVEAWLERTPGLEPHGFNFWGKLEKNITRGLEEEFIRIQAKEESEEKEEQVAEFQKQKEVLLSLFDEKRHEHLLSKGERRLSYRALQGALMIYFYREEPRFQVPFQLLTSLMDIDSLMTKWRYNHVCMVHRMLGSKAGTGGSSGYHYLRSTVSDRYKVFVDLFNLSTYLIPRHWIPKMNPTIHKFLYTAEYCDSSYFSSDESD
T4 sequence (P48775 whole entry): as above

IC50 [1] [µM] | IC50 [2] [µM] | IC50 [3] [µM] | IC50 [4] [µM] | Structure (SMILES)
0.0001 to 10 | 0.0001 to 10 | 0.0001 to 10 | > 10 | OC(c1cccc2cncn12)C1CCCCC1 (centres unmarked) [Compound P-0060, cyclohexyl(imidazo[1,5-a]pyridin-5-yl)methanol]
0.0001 to 10 | 0.0001 to 10 | 0.0001 to 10 | > 10 | CC1(C(O)c2cccc3cncn23)CCCCC1 (centres unmarked) [Compound P-0061, imidazo[1,5-a]pyridin-5-yl(1-methylcyclohexyl)methanol]
0.0001 to 10 | 0.0001 to 10 | > 10 | > 10 | OC(c1cccc2cncn12)C1(F)CCC(F)(F)CC1 (centres unmarked) [Compound P-0062, imidazo[1,5-a]pyridin-5-yl(1,4,4-trifluorocyclohexyl)methanol]
0.0001 to 10 | 0.0001 to 10 | > 10 | > 10 | OC(c1cccc2cncn12)C1CCCCCCC1 (centres unmarked) [Compound P-0063]
10 to 100 | 0.0001 to 10 | > 10 | > 10 | OC(CCc1ccccc1)c1cccc2cncn12 (centres unmarked) [Compound P-0074, 1-(imidazo[1,5-a]pyridin-5-yl)-3-phenylpropan-1-ol]
0.0001 to 10 | 10 to 100 | > 10 | > 10 | CC(C)(C)OC(=O)N1CCC(C(O)c2cccc3cncn23)CC1 (centres unmarked) [Compound P-0076, tert-butyl 4-(hydroxy(imidazo[1,5-a]pyridin-5-yl)methyl)piperidine-1-carboxylate]
0.0001 to 10 | 0.0001 to 10 | 0.0001 to 10 | > 10 | OC(CC1CCCCC1)c1cccc2cncn12 (stereo not drawn) [Compound P-0079, 2-cyclohexyl-1-(imidazo[1,5-a]pyridin-5-yl)ethan-l-ol]
0.0001 to 10 | 0.0001 to 10 | > 10 | > 10 | OC(c1cccc2cncn12)C1CCC1 (centres unmarked) [Compound P-0080, cyclobutyl(imidazo[1,5-a]pyridin-5-yl)methanol]
0.0001 to 10 | 0.0001 to 10 | > 10 | > 10 | OC(c1cccc2cncn12)C1CCC(F)(F)CC1 (centres unmarked) [Compound P-0081, (4,4-difluorocyclohexyl)(imidazo[1,5-a]pyridin-5-yl)methanol]
0.0001 to 10 | 0.0001 to 10 | 0.0001 to 10 | 0.0001 to 10 | CC1(C(O)c2cc(Br)cc3cncn23)CCCCC1 (centres unmarked) [Compound P-0082, (7-bromoimidazo[1,5-a]pyridin-5-yl)(1-methylcyclohexyl)methanol]
0.0001 to 10 | 0.0001 to 10 | 0.0001 to 10 | 0.0001 to 10 | CC1(C(O)c2cc(Cl)cc3cncn23)CCCCC1 (centres unmarked) [Compound P-0083, (7-Chloroimidazo[1,5-a]pyridin-5-yl)(1-methylcyclohexyl)methanol]
0.0001 to 10 | 0.0001 to 10 | > 10 | > 10 | OC(CC1CCOCC1)c1cccc2cncn12 (stereo not drawn) [Compound P-0084, 1-(imidazo[1,5-a]pyridin-5-yl)-2-(tetrahydro-2H-pyran-4-yl)ethan-l-ol]
0.0001 to 10 | 0.0001 to 10 | > 10 | > 10 | CC(C)(C)OC(=O)N1CCC(CC(O)c2cccc3cncn23)CC1 (stereo not drawn) [Compound P-0085, tert-butyl 4-(2-hydroxy-2-(imidazo[1,5-a]pyridin-5-yl)ethyl)piperidine-l-carboxylate]
0.0001 to 10 | 0.0001 to 10 | 0.0001 to 10 | 0.0001 to 10 | CC(C)(C1CCCCC1)C(O)c1cc(Cl)cc2cncn12 (centres unmarked) [Compound P-0086, 1-(7-chloroimidazo[1,5-a]pyridin-5-yl)-2-cyclohexyl-2-methylpropan-1-ol]
0.0001 to 10 | 0.0001 to 10 | 0.0001 to 10 | > 10 | OC(c1cccc2cncn12)C12CC3CC(CC(C3)C1)C2 [Compound P-0087, ((1S,3s)-adamantan-1-yl)(imidazo[1,5-a]pyridin-5-yl)methanol]
0.0001 to 10 | 0.0001 to 10 | 0.0001 to 10 | > 10 | CC1(C(O)c2c(Cl)ccc3cncn23)CCCCC1 (centres unmarked) [Compound P-0088, (6-chloroimidazo[1,5-a]pyridin-5-yl)(1-methylcyclohexyl)methanol]
0.0001 to 10 | 0.0001 to 10 | 0.0001 to 10 | 0.0001 to 10 | CC1(C)CN(c2cc(Cl)cc3cn[nH]c23)CCN1S(C)(=O)=O [Compound P-0089, 5-chloro-7-(3,3-dimethyl-4-(methylsulfonyl)piperazin-1-yl)-1H-indazole]
0.0001 to 10 | 0.0001 to 10 | 0.0001 to 10 | 0.0001 to 10 | Cc1cc(N2CCN(S(C)(=O)=O)C(C)(C)C2)c2[nH]ncc2c1 [Compound P-0090, 7-(3,3-dimethyl-4-(methylsulfonyl)piperazin-1-yl)-5-methyl-1H-indazole]
0.0001 to 10 | 0.0001 to 10 | 0.0001 to 10 | 0.0001 to 10 | CC1(C)CN(c2cc(C(F)(F)F)cc3cn[nH]c23)CCN1S(C)(=O)=O [Compound P-0091]
0.0001 to 10 | 0.0001 to 10 | 0.0001 to 10 | 0.0001 to 10 | CC1(C)CN(c2c(F)c(Cl)cc3cn[nH]c23)CCN1S(C)(=O)=O [Compound P-0092, 5-chloro-7-(3,3-dimethyl-4-(methylsulfonyl)piperazin-1-yl)-6-fluoro-1H-indazole]
0.0001 to 10 | 0.0001 to 10 | 0.0001 to 10 | 0.0001 to 10 | CS(=O)(=O)N1C2CCC1CN(c1cc(Cl)cc3cn[nH]c13)C2 [Compound P-0093, 5-chloro-7-(8-(methylsulfonyl)-3,8-diazabicyclo[3.2.1]octan-3-yl)-1H-indazole]
0.0001 to 10 | 0.0001 to 10 | > 10 | 0.0001 to 10 | Cc1cc(N2CC3CCC(C2)N3S(C)(=O)=O)c2[nH]ncc2c1 [Compound P-0094, 5-methyl-7-(8-(methylsulfonyl)-3,8-diazabicyclo[3.2.1]octan-3-yl)-1H-indazole]
0.0001 to 10 | 0.0001 to 10 | 0.0001 to 10 | 0.0001 to 10 | CS(=O)(=O)N1C2CCC1CN(c1cc(C(F)(F)F)cc3cn[nH]c13)C2 [Compound P-0095, 7-(8-(methylsulfonyl)-3,8-diazabicyclo[3.2.1]octan-3-yl)-5-(trifluoromethyl)-1H-indazole]
0.0001 to 10 | 0.0001 to 10 | > 10 | 0.0001 to 10 | CS(=O)(=O)N1C2CCC1CN(c1c(F)c(Cl)cc3cn[nH]c13)C2 [Compound P-0096, 5-chloro-6-fluoro-7-(8-(methylsulfonyl)-3,8-diazabicyclo[3.2.1]octan-3-yl)-1H-indazole]
0.0001 to 10 | 0.0001 to 10 | 0.0001 to 10 | 0.0001 to 10 | CC1(C)CN(c2cc(Cl)c(F)c3cn[nH]c23)CCN1S(C)(=O)=O [Compound P-0097, 5-chloro-7-(3,3-dimethyl-4-(methylsulfonyl)piperazin-1-yl)-4-fluoro-1H-indazole]
0.0001 to 10 | 0.0001 to 10 | 0.0001 to 10 | > 10 | CC1(C(O)c2c(Cl)ccn3cncc23)CCCCC1 (centres unmarked) [Compound P-0098, (7-chloroimidazo[1,5-a]pyridin-8-yl)(1-methylcyclohexyl)methanol]
